According to PubChem BioAssay AID220 (DTP/NCI, 2004):
Where “and” joins values, the source holds several entries; their conditions need not be identical. Identical values can stand only once. Records with an inconclusive call do not appear.

System: CD8F1 mice, subcutaneous mammary adenocarcinoma, T/C%
Experiment: NCI In Vivo Anticancer Drug Screen. Data for tumor model Mammary Adenocarcinoma CD8F1 (subcutaneous) in CD8F1
Details: higher = larger tumour
Method in brief: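 Mice carrying transplanted tumors received test compound, and survival or tumor size was recorded. Each value is the treated-group measurement divided by the corresponding measurement in vehicle-dosed controls.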

[1] = endpoint: median tumor weight (est.), dose: 100.0 mg/kg/injection, schedule: Q07DX005 (ip), vehicle: saline
[2] = endpoint: median tumor weight (est.), dose: 25.0 mg/kg/injection, schedule: Q07DX004 (ip), vehicle: saline
[3] = endpoint: median tumor weight (est.), dose: 50.0 mg/kg/injection, schedule: Q07DX004 (ip), vehicle: saline

## N#C[C@H](OC1OC(COC2OC(CO)C(O)C(O)C2O)C(O)C(O)C1O)c1ccccc1 (stereo partly specified)
endpoint: median tumor weight (est.), dose: 50.0 mg/kg/injection, schedule: Q07DX005 (ip), vehicle: suspension in saline
  T/C: 75 % of control
[1]
  T/C: 76 % of control
endpoint: median tumor weight (est.), dose: 100.0 mg/kg/injection, schedule: Q07DX005 (ip), vehicle: suspension in saline
  T/C: 77 % of control
endpoint: median tumor weight (est.), dose: 200.0 mg/kg/injection, schedule: Q07DX005 (ip), vehicle: saline
  T/C: 95 % of control
endpoint: median tumor weight (est.), dose: 200.0 mg/kg/injection, schedule: Q07DX005 (ip), vehicle: suspension in saline
  T/C: 171 % of control
endpoint: median tumor weight (est.), dose: 400.0 mg/kg/injection, schedule: Q07DX005 (ip), vehicle: saline
  T/C: 83 % of control
endpoint: median tumor weight (est.), dose: 400.0 mg/kg/injection, schedule: Q07DX005 (ip), vehicle: suspension in saline
  T/C: 100 % of control
endpoint: median tumor weight (est.), dose: 800.0 mg/kg/injection, schedule: Q07DX005 (ip), vehicle: saline
  T/C: 96 % of control
endpoint: median tumor weight (est.), dose: 1600.0 mg/kg/injection, schedule: Q07DX005 (ip), vehicle: saline
  T/C: 41 % of control
endpoint: median tumor weight (est.), dose: 1600.0 mg/kg/injection, schedule: Q07DX005 (ip), vehicle: suspension in saline
  T/C: 413 % of control

## COc1ccc(-c2csc(=[N+]3CCCCC3)s2)cc1
endpoint: median tumor weight change, dose: 31.0 mg/kg/injection, schedule: Q01DX001 (ip), vehicle: saline with Tween-80
  T/C: 194 % of control
endpoint: median tumor weight change, dose: 31.0 mg/kg/injection, schedule: Q01DX001 (ip), vehicle: water
  T/C: 75 % of control

## COc1cccc2c1C(=O)c1c(O)c3c(c(O)c1C2=O)C[C@@](O)(C(O)CO)C[C@@H]3OC1CC(N(Cc2ccccc2)Cc2ccccc2)C(O)C(C)O1 (stereo partly specified)
endpoint: median tumor weight change, dose: 62.0 mg/kg/injection, schedule: Q01DX001 (ip), vehicle: water
  T/C: 14 % of control
endpoint: median tumor weight change, dose: 125.0 mg/kg/injection, schedule: Q01DX001 (ip), vehicle: water
  T/C: -48 % of control

## CN(C)c1ccc(C(=C2C=CC(=[N+](C)C)C=C2)c2ccc(N(C)C)cc2)cc1 (tested in a mixture with another compound)
endpoint: median tumor weight change, dose: 2.5 mg/kg/injection, schedule: Q01DX001 (ip), vehicle: saline with Tween-80
  T/C: 75 % of control
endpoint: median tumor weight change, dose: 5.0 mg/kg/injection, schedule: Q01DX001 (ip), vehicle: saline with Tween-80
  T/C: 77 % of control

## Cc1cc(NCCCCCCCCNc2cc(C)nc3cc(N(C)C)ccc23)c2ccc(N(C)C)cc2n1
endpoint: median tumor weight change, dose: 31.0 mg/kg/injection, schedule: Q01DX001 (ip), vehicle: distilled water + Tween-80
  T/C: 35 % of control
endpoint: median tumor weight change, dose: 62.5 mg/kg/injection, schedule: Q01DX001 (ip), vehicle: distilled water + Tween-80
  T/C: 47 % of control and 54 % of control
endpoint: median tumor weight change, dose: 125.0 mg/kg/injection, schedule: Q01DX001 (ip), vehicle: distilled water + Tween-80 + alcohol
  T/C: 105 % of control
endpoint: median tumor weight change, dose: 250.0 mg/kg/injection, schedule: Q01DX001 (ip), vehicle: distilled water + Tween-80 + alcohol
  T/C: 104 % of control

## O=C1C=CC(=O)O1 (tested in a mixture with another compound)
[2]
  T/C: 76 % of control
[3]
  T/C: 61 % of control
endpoint: median tumor weight (est.), dose: 100.0 mg/kg/injection, schedule: Q07DX004 (ip), vehicle: saline
  T/C: 40 % of control
endpoint: median tumor weight (est.), dose: 200.0 mg/kg/injection, schedule: Q07DX004 (ip), vehicle: saline
  T/C: 81 % of control
endpoint: median tumor weight (est.), dose: 400.0 mg/kg/injection, schedule: Q07DX004 (ip), vehicle: saline
  T/C: 94 % of control

## CN=C(N)N/N=C(\C)c1ccc2c(c1)Cc1ccccc1-2
endpoint: median tumor weight change, dose: 125.0 mg/kg/injection, schedule: Q01DX001 (ip), vehicle: saline with Tween-80
  T/C: 60 % of control
endpoint: median tumor weight change, dose: 250.0 mg/kg/injection, schedule: Q01DX001 (ip), vehicle: saline with Tween-80
  T/C: 55 % of control

## CC1OC(=O)C(C(C)C)NC(=O)C(C(C)C)OC(=O)C(C(C)C)NC(=O)C(C)OC(=O)C(C(C)C)NC(=O)C(C(C)C)OC(=O)C(C(C)C)NC(=O)C(C)OC(=O)C(C(C)C)NC(=O)C(C(C)C)OC(=O)C(C(C)C)NC1=O (stereo unspecified)
endpoint: mean tumor weight, dose: 1.0 mg/kg/injection, schedule: Q02DX007 (ip), vehicle: saline
  T/C: 119 % of control
endpoint: mean tumor weight, dose: 1.0 mg/kg/injection, schedule: Q07DX006 (ip), vehicle: saline
  T/C: 49 % of control
endpoint: mean tumor weight, dose: 2.0 mg/kg/injection, schedule: Q02DX007 (ip), vehicle: saline
  T/C: 87 % of control
endpoint: mean tumor weight, dose: 2.0 mg/kg/injection, schedule: Q07DX006 (ip), vehicle: saline
  T/C: 110 % of control
endpoint: mean tumor weight, dose: 4.0 mg/kg/injection, schedule: Q02DX007 (ip), vehicle: saline
  T/C: 97 % of control
endpoint: mean tumor weight, dose: 4.0 mg/kg/injection, schedule: Q07DX006 (ip), vehicle: saline
  T/C: 165 % of control
endpoint: mean tumor weight, dose: 8.0 mg/kg/injection, schedule: Q02DX007 (ip), vehicle: saline
  T/C: 103 % of control
endpoint: mean tumor weight, dose: 8.0 mg/kg/injection, schedule: Q07DX006 (ip), vehicle: saline
  T/C: 84 % of control
endpoint: mean tumor weight, dose: 16.0 mg/kg/injection, schedule: Q02DX007 (ip), vehicle: saline
  T/C: 116 % of control
endpoint: mean tumor weight, dose: 16.0 mg/kg/injection, schedule: Q07DX006 (ip), vehicle: saline
  T/C: 70 % of control
endpoint: median tumor weight (est.), dose: 1.25 mg/kg/injection, schedule: Q07DX005 (ip), vehicle: saline with Tween-80
  T/C: 69 % of control
endpoint: median tumor weight (est.), dose: 2.5 mg/kg/injection, schedule: Q07DX005 (ip), vehicle: saline with Tween-80
  T/C: 34 % of control
endpoint: median tumor weight (est.), dose: 5.0 mg/kg/injection, schedule: Q07DX005 (ip), vehicle: saline with Tween-80
  T/C: 86 % of control
endpoint: median tumor weight (est.), dose: 10.0 mg/kg/injection, schedule: Q07DX005 (ip), vehicle: saline with Tween-80
  T/C: 114 % of control
endpoint: median tumor weight (est.), dose: 20.0 mg/kg/injection, schedule: Q07DX005 (ip), vehicle: saline with Tween-80
  T/C: 74 % of control

## Oc1c(Cl)cc(Cl)cc1C=NCCSc1ccc(Cl)cc1
endpoint: median tumor weight change, dose: 62.5 mg/kg/injection, schedule: Q01DX001 (ip), vehicle: Klucel (hydroxypropylcellulose) (HPC)
  T/C: 99 % of control and 100 % of control
endpoint: median tumor weight change, dose: 125.0 mg/kg/injection, schedule: Q01DX001 (ip), vehicle: Klucel (hydroxypropylcellulose) (HPC)
  T/C: 89 % of control and 104 % of control
endpoint: median tumor weight change, dose: 250.0 mg/kg/injection, schedule: Q01DX001 (ip), vehicle: Klucel (hydroxypropylcellulose) (HPC)
  T/C: 87 % of control and 103 % of control

## CCOC(OCC)C(=O)OCC(=O)[C@]1(O)Cc2c(O)c3c(c(O)c2[C@@H](OC2CC(N)C(O)C(C)O2)C1)C(=O)c1c(OC)cccc1C3=O (stereo partly specified)
endpoint: median tumor weight (est.), dose: 0.5 mg/kg/injection, schedule: Q07DX005 (ip), vehicle: water
  T/C: 166 % of control
endpoint: median tumor weight (est.), dose: 1.0 mg/kg/injection, schedule: Q07DX005 (ip), vehicle: saline
  T/C: 85 % of control
endpoint: median tumor weight (est.), dose: 1.0 mg/kg/injection, schedule: Q07DX005 (ip), vehicle: water
  T/C: 50 % of control
endpoint: median tumor weight (est.), dose: 2.0 mg/kg/injection, schedule: Q07DX005 (ip), vehicle: saline
  T/C: 47 % of control
endpoint: median tumor weight (est.), dose: 2.0 mg/kg/injection, schedule: Q07DX005 (ip), vehicle: water
  T/C: 74 % of control
endpoint: median tumor weight (est.), dose: 4.0 mg/kg/injection, schedule: Q07DX005 (ip), vehicle: saline
  T/C: 20 % of control
endpoint: median tumor weight (est.), dose: 4.0 mg/kg/injection, schedule: Q07DX005 (ip), vehicle: water
  T/C: 24 % of control

## [N-]=[N+]=CC(=O)CCC(N)C(=O)O (stereo unspecified)
endpoint: median tumor weight (est.), dose: 3.12 mg/kg/injection, schedule: Q04DX005 (ip), vehicle: saline
  T/C: 22 % of control and 43 % of control
endpoint: median tumor weight (est.), dose: 6.25 mg/kg/injection, schedule: Q04DX005 (ip), vehicle: saline
  T/C: 31 % of control and 56 % of control
endpoint: median tumor weight (est.), dose: 12.5 mg/kg/injection, schedule: Q04DX005 (ip), vehicle: saline
  T/C: 30 % of control and 50 % of control
endpoint: median tumor weight (est.), dose: 12.5 mg/kg/injection, schedule: Q07DX004 (ip), vehicle: saline
  T/C: 85 % of control and 105 % of control
endpoint: median tumor weight (est.), dose: 12.5 mg/kg/injection, schedule: Q07DX005 (ip), vehicle: saline
  T/C: 23 % of control and 30 % of control
endpoint: median tumor weight (est.), dose: 25.0 mg/kg/injection, schedule: Q01DX001 (ip), vehicle: saline
  T/C: 35 % of control
[2]
  T/C: 23 % of control and 34 % of control
endpoint: median tumor weight (est.), dose: 25.0 mg/kg/injection, schedule: Q07DX005 (ip), vehicle: saline
  T/C: 47 % of control
endpoint: median tumor weight (est.), dose: 50.0 mg/kg/injection, schedule: Q01DX001 (ip), vehicle: saline
  T/C: 35 % of control
[3]
  T/C: 21 % of control and 31 % of control
endpoint: median tumor weight (est.), dose: 50.0 mg/kg/injection, schedule: Q07DX005 (ip), vehicle: saline
  T/C: 16 % of control and 33 % of control
endpoint: median tumor weight (est.), dose: 100.0 mg/kg/injection, schedule: Q01DX001 (ip), vehicle: saline
  T/C: 43 % of control
[1]
  T/C: 6 % of control

## CCOC(=O)[C@]1(Br)CC[C@@]1(Br)C(=O)OCC
endpoint: median tumor weight (est.), dose: 12.5 mg/kg/injection, schedule: Q07DX005 (ip), vehicle: saline with Tween-80
  T/C: 117 % of control
endpoint: median tumor weight (est.), dose: 25.0 mg/kg/injection, schedule: Q07DX005 (ip), vehicle: saline with Tween-80
  T/C: 102 % of control
endpoint: median tumor weight (est.), dose: 50.0 mg/kg/injection, schedule: Q07DX005 (ip), vehicle: saline with Tween-80
  T/C: 95 % of control
endpoint: median tumor weight (est.), dose: 100.0 mg/kg/injection, schedule: Q07DX005 (ip), vehicle: saline with Tween-80
  T/C: 112 % of control
endpoint: median tumor weight (est.), dose: 200.0 mg/kg/injection, schedule: Q07DX005 (ip), vehicle: saline with Tween-80
  T/C: 95 % of control
endpoint: median tumor weight (est.), dose: 400.0 mg/kg/injection, schedule: Q07DX005 (ip), vehicle: saline with Tween-80
  T/C: 105 % of control
